According to patent publication US10344000B2, “Substituted bicyclic pyrazole compounds as RORgammaT inhibitors and uses thereof” (Merck Sharp & Dohme Corp., priority 2015, dated 2019):

target: human RORgammaT-Ligand Binding Domain (LBD) (Homo sapiens (Human), UniProt P51449); assay: RORγ-Ligand Binding Domain TR-FRET Assay (SRC1_2 co-activator peptide); format: biochemical; settings: Fret IC50 (nM), HIS-tagged RORγ-LBD 3 nM, biotinylated SRC1 LXXLL peptide 100 nM, incubated overnight at 4° C.
Sequence (P51449 269-508): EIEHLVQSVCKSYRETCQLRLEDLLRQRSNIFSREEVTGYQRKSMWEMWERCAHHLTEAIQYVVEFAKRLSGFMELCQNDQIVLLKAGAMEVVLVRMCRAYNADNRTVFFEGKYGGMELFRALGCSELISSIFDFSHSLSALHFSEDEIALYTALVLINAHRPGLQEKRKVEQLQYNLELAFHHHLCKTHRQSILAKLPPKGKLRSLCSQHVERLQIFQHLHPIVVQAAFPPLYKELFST

SMILES | IC50
N#CC1(c2cccc(Cl)c2C(=O)n2nc(C3=CCC(C(=O)O)CC3)c3c2COCC3)CCC1 (single isomer, unassigned) [Example 2C-A, (1R or S)-4-(1-{[2-chloro-6-(1-cyanocyclobutyl)phenyl]carbonyl}-1,4,5,7-tetrahydropyrano[3,4-c]pyrazol-3-yl)cyclohex-3-ene-1-carboxylic acid] | 676 nM
N#CC1(c2cccc(Cl)c2C(=O)n2nc(C3=CCC(C(=O)O)CC3)c3c2COCC3)CCC1 (single isomer, unassigned) [Example 2C-B, (1R or S)-4-(1-{[2-chloro-6-(1-cyanocyclobutyl)phenyl]carbonyl}-1,4,5,7-tetrahydropyrano[3,4-c]pyrazol-3-yl)cyclohex-3-ene-1-carboxylic acid] | 1050 nM

same assay, conditions: HIS-tagged RORγ-LBD 3 nM, biotinylated SRC1 LXXLL peptide 100 nM, incubated overnight at 4° C.; read-out: Fret IC50

IC50 | SMILES
1200 nM | NCC1CCc2c(C3=CCC(C(=O)O)CC3)nn(C(=O)c3c(Cl)cccc3C3CC3)c2C1 (single isomer, unassigned) [Example 14A, 4-((R or S)-6-(aminomethyl)-1-(2-chloro-6-cyclopropylbenzoyl)-4,5,6,7-tetrahydro-1H-indazol-3-yl)cyclohex-3-ene-1-carboxylic Acid]
5 nM | O=C(O)C1CC=C(c2nn(C(=O)c3c(Cl)cccc3C3(C(F)(F)F)CC3)c3c2CCC(CO)C3)CC1 (single isomer, unassigned) [Example 7D, 4-((R or S)-1-(2-chloro-6-(1-(trifluoromethyl)cyclopropyl)benzoyl)-6-(hydroxymethyl)-4,5,6,7-tetrahydro-1H-indazol-3-yl)cyclohex-3-ene-1-carboxylic acid]
9 nM | O=C(O)C1CC=C(c2nn(C(=O)c3c(Cl)cccc3C3CC3)c3c2CCC(CO)C3)CC1 (single isomer, unassigned) [Example 7A, 4-((R or S)-1-(2-chloro-6-cyclopropylbenzoyl)-6-(hydroxymethyl)-4,5,6,7-tetrahydro-1H-indazol-3-yl)cyclohex-3-ene-1-carboxylic Acid]
32 nM | O=C(O)C1CC=C(c2nn(C(=O)c3c(Cl)cccc3C3CC3)c3c2CCC(O)C3)CC1 (single isomer, unassigned) [Example 10B, 4-((R or S)-1-(2-chloro-6-cyclopropylbenzoyl)-6-hydroxy-4,5,6,7-tetrahydro-1H-indazol-3-yl)cyclohex-3-ene-1-carboxylic Acid]
14 nM | O=C(O)C1CC=C(c2nn(C(=O)c3c(C4CC4)ccc(F)c3Cl)c3c2CCC(CO)C3)CC1 (single isomer, unassigned) [Example 7B, 4-((R or S)-1-(2-chloro-6-cyclopropyl-3-fluorobenzoyl)-6-(hydroxymethyl)-4,5,6,7-tetrahydro-1H-indazol-3-yl)cyclohex-3-ene-1-carboxylic acid]
149 nM | O=C(O)C1CCN(c2nn(C(=O)c3c(Cl)cccc3C3CC3)c3c2CCCC3)CC1 [Example 16A, 1-(1-(2-chloro-6-cyclopropylbenzoyl)-4,5,6,7-tetrahydro-1H-indazol-3-yl)piperidine-4-carboxylic Acid]
173 nM | O=C(O)C1CC=C(c2nn(C(=O)c3c(Cl)cccc3C3CC3)c3c2CCC(CO)C3)CC1 (single isomer, unassigned) [Example 6A, 4-((R or S)-1-(2-chloro-6-cyclopropylbenzoyl)-6-(hydroxymethyl)-4,5,6,7-tetrahydro-1H-indazol-3-yl)cyclohex-3-ene-1-carboxylic Acid]
15 nM | O=C(O)C1CC=C(c2nn(C(=O)c3c(Cl)cccc3C3COC3)c3c2CCC(CO)C3)CC1 (single isomer, unassigned) [Example 7C, 4-((R or S)-1-(2-chloro-6-(oxetan-3-yl)benzoyl)-6-(hydroxymethyl)-4,5,6,7-tetrahydro-1H-indazol-3-yl)cyclohex-3-ene-1-carboxylic acid]
57 nM | O=C(O)C1CC=C(c2nn(C(=O)c3c(Cl)cccc3C3CC3)c3c2CCC(O)C3)CC1 (single isomer, unassigned) [Example 10A, 4-((R or S)-1-(2-chloro-6-cyclopropylbenzoyl)-6-hydroxy-4,5,6,7-tetrahydro-1H-indazol-3-yl)cyclohex-3-ene-1-carboxylic Acid]
1170 nM | N#CC1(c2cccc(Cl)c2C(=O)n2nc(C3=CCC(C(=O)O)CC3)c3c2CCC3)CCC1 (centres unmarked) [Example 1F, 4-(1-{[2-chloro-6-(1-cyanocyclobutyl)phenyl]carbonyl}-1,4,5,6-tetrahydrocyclopenta[c]pyrazol-3-yl)cyclohex-3-ene-1-carboxylic acid]
38 nM | CC1(c2cccc(Cl)c2C(=O)n2nc(C3=CCC(C(=O)O)CC3)c3c2COCC3)CC1 (centres unmarked) [Example 1D, 4-(1-{[2-chloro-6-(1-methylcyclopropyl)phenyl]carbonyl}-1,4,5,7-tetrahydropyrano[3,4-c]pyrazol-3-yl)cyclohex-3-ene-1-carboxylic acid]
56 nM | O=C(O)C1CC=C(c2nn(C(=O)c3c(Cl)cccc3C3CC3)c3c2OCCC3)CC1 (centres unmarked) [Example 15A, 4-(1-(2-chloro-6-cyclopropylbenzoyl)-1,5,6,7-tetrahydropyrano[3,2-c]pyrazol-3-yl)cyclohex-3-ene-1-carboxylic Acid]
